# Results from ChEMBL document CHEMBL4507258 (2021).
# Columns and labels:
# [1] = molecular target: Mitogen-activated protein kinase 4 (Homo sapiens) (UniProt P31152); conditions: Compound concentration 1000.0 nM
# [2] = molecular target: Serine/threonine-protein kinase Sgk1 (Homo sapiens) (UniProt O00141); conditions: Compound concentration 1000.0 nM
# [3] = molecular target: Serine/threonine-protein kinase PAK 5 (Homo sapiens) (UniProt Q9P286); conditions: Compound concentration 1000.0 nM
# [4] = molecular target: Dual specificity mitogen-activated protein kinase kinase 6 (Homo sapiens) (UniProt P52564); conditions: Compound concentration 1000.0 nM
# Sequence of Dual specificity mitogen-activated protein kinase kinase 6 (Homo sapiens) (P52564 whole entry): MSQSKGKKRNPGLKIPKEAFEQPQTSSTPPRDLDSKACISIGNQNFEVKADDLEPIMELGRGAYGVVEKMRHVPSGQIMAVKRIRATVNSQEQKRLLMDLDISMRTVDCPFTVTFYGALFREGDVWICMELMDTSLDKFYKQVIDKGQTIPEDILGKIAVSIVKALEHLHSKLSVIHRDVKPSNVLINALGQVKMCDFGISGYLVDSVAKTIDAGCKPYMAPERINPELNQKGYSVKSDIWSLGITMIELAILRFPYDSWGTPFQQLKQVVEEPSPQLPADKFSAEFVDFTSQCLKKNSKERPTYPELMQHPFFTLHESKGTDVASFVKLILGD
# [5] = molecular target: Tyrosine-protein kinase ABL2 (Homo sapiens) (UniProt P42684); conditions: Compound concentration 1000.0 nM
# Sequence of Tyrosine-protein kinase ABL2 (Homo sapiens) (P42684 whole entry): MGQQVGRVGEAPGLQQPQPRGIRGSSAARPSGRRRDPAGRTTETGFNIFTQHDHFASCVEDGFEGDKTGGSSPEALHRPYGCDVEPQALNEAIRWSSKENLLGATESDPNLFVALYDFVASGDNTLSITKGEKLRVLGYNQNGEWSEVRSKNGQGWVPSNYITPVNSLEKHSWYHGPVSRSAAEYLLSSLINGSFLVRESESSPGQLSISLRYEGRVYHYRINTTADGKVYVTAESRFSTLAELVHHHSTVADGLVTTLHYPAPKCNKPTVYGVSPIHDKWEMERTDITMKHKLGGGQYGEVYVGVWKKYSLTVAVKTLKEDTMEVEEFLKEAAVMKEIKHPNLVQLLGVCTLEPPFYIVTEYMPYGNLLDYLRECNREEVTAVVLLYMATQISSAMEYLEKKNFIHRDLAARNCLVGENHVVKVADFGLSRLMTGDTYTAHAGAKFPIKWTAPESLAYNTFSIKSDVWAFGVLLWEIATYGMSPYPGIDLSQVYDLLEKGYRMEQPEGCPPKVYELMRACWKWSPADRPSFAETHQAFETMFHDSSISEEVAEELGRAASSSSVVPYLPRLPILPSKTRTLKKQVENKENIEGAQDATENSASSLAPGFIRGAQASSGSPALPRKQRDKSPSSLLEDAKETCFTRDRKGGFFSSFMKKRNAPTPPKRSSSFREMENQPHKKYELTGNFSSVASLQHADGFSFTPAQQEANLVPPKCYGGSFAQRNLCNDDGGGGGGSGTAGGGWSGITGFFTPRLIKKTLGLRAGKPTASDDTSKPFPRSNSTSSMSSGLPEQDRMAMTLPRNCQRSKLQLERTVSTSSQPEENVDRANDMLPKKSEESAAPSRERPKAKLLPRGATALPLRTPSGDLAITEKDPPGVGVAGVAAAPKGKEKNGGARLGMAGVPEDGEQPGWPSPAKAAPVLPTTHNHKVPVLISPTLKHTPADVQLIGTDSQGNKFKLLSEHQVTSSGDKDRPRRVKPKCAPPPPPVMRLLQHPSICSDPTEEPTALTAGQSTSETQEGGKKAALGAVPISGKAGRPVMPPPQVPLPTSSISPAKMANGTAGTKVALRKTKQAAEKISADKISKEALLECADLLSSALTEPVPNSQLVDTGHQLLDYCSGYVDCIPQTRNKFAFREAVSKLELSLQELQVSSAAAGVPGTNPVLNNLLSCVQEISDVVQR
# [6] = tested on: Hepatocyte growth factor receptor (Homo sapiens), P08581 [M1250T]; conditions: Compound concentration 1000.0 nM
# [7] = tested on: Epidermal growth factor receptor (Homo sapiens), P00533 [UNDEFINED MUTATION]; conditions: Compound concentration 1000.0 nM
# [8] = molecular target: Uncharacterized serine/threonine-protein kinase SBK3 (Homo sapiens) (UniProt P0C264); conditions: Compound concentration 1000.0 nM
# [9] = molecular target: Ephrin type-A receptor 4 (Homo sapiens) (UniProt P54764); conditions: Compound concentration 1000.0 nM
# [10] = molecular target: Serine/threonine-protein kinase 24 (Homo sapiens) (UniProt Q9Y6E0); conditions: Compound concentration 1000.0 nM
# [11] = molecular target: Delta-type opioid receptor (Homo sapiens) (UniProt P41143); conditions: Compound concentration 10.0 uM
# [12] = molecular target: Tyrosine-protein kinase Fyn (Homo sapiens) (UniProt P06241); conditions: Compound concentration 1000.0 nM
# Sequence of Tyrosine-protein kinase Fyn (Homo sapiens) (P06241 2-537 limits assumed): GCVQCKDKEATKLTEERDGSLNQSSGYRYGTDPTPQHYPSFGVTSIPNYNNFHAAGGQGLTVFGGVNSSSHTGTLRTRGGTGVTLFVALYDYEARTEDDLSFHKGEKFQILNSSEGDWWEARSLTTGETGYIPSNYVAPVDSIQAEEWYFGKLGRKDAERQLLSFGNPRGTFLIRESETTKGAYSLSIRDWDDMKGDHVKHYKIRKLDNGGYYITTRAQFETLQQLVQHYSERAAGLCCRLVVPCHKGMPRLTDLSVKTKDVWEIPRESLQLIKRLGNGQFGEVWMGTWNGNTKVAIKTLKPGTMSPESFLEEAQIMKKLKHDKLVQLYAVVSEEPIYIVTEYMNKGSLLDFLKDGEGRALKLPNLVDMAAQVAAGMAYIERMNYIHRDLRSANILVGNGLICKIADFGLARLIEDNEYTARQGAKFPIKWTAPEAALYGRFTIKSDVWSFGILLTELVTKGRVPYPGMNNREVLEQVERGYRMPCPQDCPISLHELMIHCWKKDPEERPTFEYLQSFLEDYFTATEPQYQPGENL
# [13] = tested on: ALK tyrosine kinase receptor (Homo sapiens), Q9UM73 [L1196M]; conditions: Compound concentration 1000.0 nM
# [14] = molecular target: Serine/threonine-protein kinase Nek10 (Homo sapiens) (UniProt Q6ZWH5); conditions: Compound concentration 1000.0 nM
# [15] = molecular target: Mitogen-activated protein kinase kinase kinase 15 (Homo sapiens) (UniProt Q6ZN16); conditions: Compound concentration 1000.0 nM
# [16] = molecular target: Activin receptor type-2A (Homo sapiens) (UniProt P27037); conditions: Compound concentration 1000.0 nM
# [17] = molecular target: Aurora kinase B (Homo sapiens) (UniProt Q96GD4); conditions: Compound concentration 1000.0 nM
# Sequence of Aurora kinase B (Homo sapiens) (Q96GD4 whole entry): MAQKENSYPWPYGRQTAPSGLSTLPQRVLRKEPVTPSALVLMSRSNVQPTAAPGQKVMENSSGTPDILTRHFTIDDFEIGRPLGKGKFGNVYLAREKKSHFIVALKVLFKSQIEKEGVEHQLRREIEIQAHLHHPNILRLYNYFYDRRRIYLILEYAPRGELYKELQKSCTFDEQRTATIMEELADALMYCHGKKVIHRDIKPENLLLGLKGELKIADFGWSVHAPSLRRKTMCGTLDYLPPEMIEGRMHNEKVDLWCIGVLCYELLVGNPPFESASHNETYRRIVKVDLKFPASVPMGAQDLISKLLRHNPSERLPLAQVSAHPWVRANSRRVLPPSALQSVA
# [18] = molecular target: Tyrosine-protein kinase HCK (Homo sapiens) (UniProt P08631); conditions: Compound concentration 1000.0 nM
# [19] = molecular target: Serine/threonine-protein kinase 16 (Homo sapiens) (UniProt O75716); conditions: Compound concentration 1000.0 nM
# Sequence of Serine/threonine-protein kinase 16 (Homo sapiens) (O75716 whole entry): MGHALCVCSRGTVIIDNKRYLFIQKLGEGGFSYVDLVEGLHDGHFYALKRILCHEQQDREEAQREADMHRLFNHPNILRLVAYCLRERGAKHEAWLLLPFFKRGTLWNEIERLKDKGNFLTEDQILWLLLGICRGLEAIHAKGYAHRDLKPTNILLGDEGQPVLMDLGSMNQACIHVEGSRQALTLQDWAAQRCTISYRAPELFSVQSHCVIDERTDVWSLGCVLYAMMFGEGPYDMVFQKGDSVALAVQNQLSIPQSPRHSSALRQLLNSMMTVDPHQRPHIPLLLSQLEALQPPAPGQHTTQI
# [20] = molecular target: Casein kinase II subunit alpha (Homo sapiens) (UniProt P68400); conditions: Compound concentration 1000.0 nM
# [21] = molecular target: Calcium/calmodulin-dependent protein kinase kinase 1 (Homo sapiens) (UniProt Q8N5S9); conditions: Compound concentration 1000.0 nM
# [22] = molecular target: Phosphatidylinositol 4-phosphate 3-kinase C2 domain-containing subunit beta (Homo sapiens) (UniProt O00750); conditions: Compound concentration 1000.0 nM
# [23] = molecular target: Serine/threonine-protein kinase TAO1 (Homo sapiens) (UniProt Q7L7X3); conditions: Compound concentration 1000.0 nM
# [24] = tested on: Phosphatidylinositol 4,5-bisphosphate 3-kinase catalytic subunit alpha isoform (Homo sapiens), P42336 [H1047L]; conditions: Compound concentration 1000.0 nM
# [25] = molecular target: Mu-type opioid receptor (Homo sapiens, UniProt P35372); conditions: Compound concentration 10.0 uM
# [26] = molecular target: RAC-gamma serine/threonine-protein kinase (Homo sapiens) (UniProt Q9Y243); conditions: Compound concentration 1000.0 nM
# [27] = molecular target: Non-receptor tyrosine-protein kinase TYK2 (Homo sapiens) (UniProt P29597); conditions: Compound concentration 1000.0 nM
# [28] = molecular target: SRSF protein kinase 2 (Homo sapiens) (UniProt P78362); conditions: Compound concentration 1000.0 nM
# [29] = molecular target: Phosphatidylinositol 3-kinase C2 domain-containing subunit gamma (Homo sapiens) (UniProt O75747); conditions: Compound concentration 1000.0 nM
# [30] = molecular target: Beta-3 adrenergic receptor (Homo sapiens) (UniProt P13945); conditions: Compound concentration 10.0 uM
# [31] = tested on: Receptor-type tyrosine-protein kinase FLT3 (Homo sapiens), P36888 [N841I]; conditions: Compound concentration 1000.0 nM
# [32] = molecular target: Cyclin-dependent kinase 2 (Homo sapiens) (UniProt P24941); conditions: Compound concentration 1000.0 nM
# [33] = molecular target: Mitogen-activated protein kinase 8 (Homo sapiens) (UniProt P45983); conditions: Compound concentration 1000.0 nM
# [34] = molecular target: Receptor-type tyrosine-protein kinase FLT3 (Homo sapiens) (UniProt P36888); conditions: Compound concentration 1000.0 nM
# [35] = molecular target: Rhodopsin kinase GRK1 (Homo sapiens) (UniProt Q15835); conditions: Compound concentration 1000.0 nM
# [36] = molecular target: Platelet-derived growth factor receptor beta (Homo sapiens) (UniProt P09619); conditions: Compound concentration 1000.0 nM
# Sequence of Platelet-derived growth factor receptor beta (Homo sapiens) (P09619 whole entry): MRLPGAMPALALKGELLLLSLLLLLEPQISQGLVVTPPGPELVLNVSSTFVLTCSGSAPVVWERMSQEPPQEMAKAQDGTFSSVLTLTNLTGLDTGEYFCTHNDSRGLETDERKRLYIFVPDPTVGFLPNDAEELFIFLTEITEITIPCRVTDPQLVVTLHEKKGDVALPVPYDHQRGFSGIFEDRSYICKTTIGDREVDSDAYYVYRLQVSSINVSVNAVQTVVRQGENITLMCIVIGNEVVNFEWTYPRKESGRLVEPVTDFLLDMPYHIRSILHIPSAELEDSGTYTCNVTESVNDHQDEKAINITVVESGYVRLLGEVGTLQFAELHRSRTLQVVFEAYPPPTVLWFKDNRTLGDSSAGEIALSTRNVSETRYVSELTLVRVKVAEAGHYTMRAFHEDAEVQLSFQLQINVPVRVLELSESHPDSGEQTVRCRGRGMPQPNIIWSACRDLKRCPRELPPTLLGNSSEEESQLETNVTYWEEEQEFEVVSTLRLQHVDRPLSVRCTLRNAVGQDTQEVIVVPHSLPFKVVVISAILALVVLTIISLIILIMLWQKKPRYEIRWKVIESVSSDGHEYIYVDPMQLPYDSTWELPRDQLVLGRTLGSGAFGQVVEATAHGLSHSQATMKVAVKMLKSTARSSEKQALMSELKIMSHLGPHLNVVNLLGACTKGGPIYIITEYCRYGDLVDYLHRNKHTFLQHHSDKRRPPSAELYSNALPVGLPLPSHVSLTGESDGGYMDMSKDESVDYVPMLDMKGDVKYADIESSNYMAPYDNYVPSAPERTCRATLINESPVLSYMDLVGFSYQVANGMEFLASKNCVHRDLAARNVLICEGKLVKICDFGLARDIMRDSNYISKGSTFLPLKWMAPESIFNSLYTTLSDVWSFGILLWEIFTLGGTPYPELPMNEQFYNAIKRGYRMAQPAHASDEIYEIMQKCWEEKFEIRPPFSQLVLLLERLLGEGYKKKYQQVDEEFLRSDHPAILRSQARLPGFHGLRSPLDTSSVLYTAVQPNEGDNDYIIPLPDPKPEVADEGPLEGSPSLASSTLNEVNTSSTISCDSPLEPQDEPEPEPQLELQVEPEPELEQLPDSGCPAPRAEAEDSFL
# [37] = molecular target: Cyclin-dependent kinase 15 (Homo sapiens) (UniProt Q96Q40); conditions: Compound concentration 1000.0 nM
# [38] = molecular target: Phosphatidylinositol 3-kinase catalytic subunit type 3 (Homo sapiens) (UniProt Q8NEB9); conditions: Compound concentration 1000.0 nM
# [39] = molecular target: Ephrin type-A receptor 8 (Homo sapiens) (UniProt P29322); conditions: Compound concentration 1000.0 nM
# [40] = molecular target: TRAF2 and NCK-interacting protein kinase (Homo sapiens) (UniProt Q9UKE5); conditions: Compound concentration 1000.0 nM
# [41] = molecular target: Hormonally up-regulated neu tumor-associated kinase (Homo sapiens) (UniProt P57058); conditions: Compound concentration 1000.0 nM
# Sequence of Hormonally up-regulated neu tumor-associated kinase (Homo sapiens) (P57058 whole entry): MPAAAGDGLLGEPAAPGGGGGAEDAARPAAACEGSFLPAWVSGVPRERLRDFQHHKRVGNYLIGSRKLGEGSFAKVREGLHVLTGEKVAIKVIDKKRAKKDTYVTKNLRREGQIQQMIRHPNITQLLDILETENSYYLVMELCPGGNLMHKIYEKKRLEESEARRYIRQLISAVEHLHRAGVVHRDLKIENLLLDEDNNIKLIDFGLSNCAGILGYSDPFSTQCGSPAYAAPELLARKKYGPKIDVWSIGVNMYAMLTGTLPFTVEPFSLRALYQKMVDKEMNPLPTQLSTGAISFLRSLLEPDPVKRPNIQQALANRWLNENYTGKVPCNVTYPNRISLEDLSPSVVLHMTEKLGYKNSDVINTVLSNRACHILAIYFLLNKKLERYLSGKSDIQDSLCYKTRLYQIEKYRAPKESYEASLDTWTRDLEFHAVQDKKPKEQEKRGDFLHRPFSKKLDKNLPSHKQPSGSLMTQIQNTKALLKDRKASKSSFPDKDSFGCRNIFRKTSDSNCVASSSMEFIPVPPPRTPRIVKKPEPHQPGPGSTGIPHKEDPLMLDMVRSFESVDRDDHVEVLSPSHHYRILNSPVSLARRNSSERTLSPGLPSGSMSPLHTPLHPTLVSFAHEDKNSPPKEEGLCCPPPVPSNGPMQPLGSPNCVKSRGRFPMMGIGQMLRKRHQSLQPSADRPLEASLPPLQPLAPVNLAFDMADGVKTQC
# [42] = molecular target: Histamine H3 receptor (Homo sapiens) (UniProt Q9Y5N1); conditions: Compound concentration 10.0 uM
# Sequence of Histamine H3 receptor (Homo sapiens) (Q9Y5N1 whole entry): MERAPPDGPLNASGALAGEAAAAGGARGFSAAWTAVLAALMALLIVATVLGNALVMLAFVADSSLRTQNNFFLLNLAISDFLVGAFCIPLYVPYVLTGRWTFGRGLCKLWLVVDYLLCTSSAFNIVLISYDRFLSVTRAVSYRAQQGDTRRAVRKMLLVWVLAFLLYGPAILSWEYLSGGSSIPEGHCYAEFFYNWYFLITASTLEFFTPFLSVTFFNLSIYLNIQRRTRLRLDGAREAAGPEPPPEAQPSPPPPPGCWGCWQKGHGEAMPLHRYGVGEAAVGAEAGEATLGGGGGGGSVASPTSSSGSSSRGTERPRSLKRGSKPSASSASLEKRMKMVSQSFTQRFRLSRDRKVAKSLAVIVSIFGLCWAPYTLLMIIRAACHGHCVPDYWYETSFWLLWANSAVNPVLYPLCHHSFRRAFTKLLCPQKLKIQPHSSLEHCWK
# [43] = molecular target: Serine/threonine-protein kinase PRP4 homolog (Homo sapiens) (UniProt Q13523); conditions: Compound concentration 1000.0 nM
# [44] = molecular target: Atypical kinase COQ8A, mitochondrial (Homo sapiens) (UniProt Q8NI60); conditions: Compound concentration 1000.0 nM
# [45] = molecular target: Dual specificity mitogen-activated protein kinase kinase 3 (Homo sapiens) (UniProt P46734); conditions: Compound concentration 1000.0 nM
smiles,measurement,setting,value
CCCCN(CCCC)C(=O)CN1C[C@@H](c2cc(OC)c3c(c2)OCO3)[C@H](C(=O)O)[C@H]1CC(C)(C)CCC [A-545],residual activity,[1],100%
same,residual activity,[2],77.6%
same,residual activity,[3],96.6%
same,residual activity,[4],90.8%
same,residual activity,[5],100%
same,residual activity,[6],100%
same,residual activity,[7],100%
same,residual activity,[8],100%
same,residual activity,[9],95.7%
same,residual activity,[10],93.9%
same,inhibition,[11],41.1%
same,residual activity,[12],99.1%
same,residual activity,[13],100%
same,residual activity,[14],100%
same,residual activity,[15],99%
same,residual activity,[16],85.1%
same,residual activity,[17],100%
same,residual activity,[18],82.8%
same,residual activity,[19],100%
same,residual activity,[20],88.6%
same,residual activity,[21],100%
same,residual activity,[22],73.6%
same,residual activity,[23],97.4%
same,residual activity,[24],62.4%
same,inhibition,[25],58.5%
same,residual activity,[26],100%
same,residual activity,[27],100%
same,residual activity,[28],100%
same,residual activity,[29],80.3%
same,inhibition,[30],28.4%
same,residual activity,[31],96.1%
same,residual activity,[32],100%
same,residual activity,[33],92.1%
same,residual activity,[34],91.9%
same,residual activity,[35],100%
same,residual activity,[36],99%
same,residual activity,[37],93.8%
same,residual activity,[38],98.7%
same,residual activity,[39],99.9%
same,residual activity,[40],86%
same,residual activity,[41],96.8%
same,inhibition,[42],17%
same,residual activity,[43],99.3%
same,residual activity,[44],99.4%
same,residual activity,[45],89.5%
CCCCN(CCCC)C(=O)CN1C[C@H](c2cc(OC)c3c(c2)OCO3)[C@@H](C(=O)O)[C@@H]1CC(C)(C)CCC [ABT-546],residual activity,[1],100%
same,residual activity,[2],69.2%
same,residual activity,[3],93.8%
same,residual activity,[4],100%
same,residual activity,[5],100%
same,residual activity,[6],100%
same,residual activity,[7],95.6%
same,residual activity,[8],100%
same,residual activity,[9],100%
same,residual activity,[10],100%
same,inhibition,[11],25.6%
same,residual activity,[12],100%
same,residual activity,[13],100%
same,residual activity,[14],57.4%
same,residual activity,[15],100%
same,residual activity,[16],97.4%
same,residual activity,[17],100%
same,residual activity,[18],100%
same,residual activity,[19],100%
same,residual activity,[20],68.5%
same,residual activity,[21],100%
same,residual activity,[22],65.9%
same,residual activity,[23],55.6%
same,residual activity,[24],100%
same,inhibition,[25],14.2%
same,residual activity,[26],100%
same,residual activity,[27],100%
same,residual activity,[28],100%
same,residual activity,[29],100%
same,inhibition,[30],2.71%
same,residual activity,[31],100%
same,residual activity,[32],100%
same,residual activity,[33],100%
same,residual activity,[34],100%
same,residual activity,[35],71.9%
same,residual activity,[36],100%
same,residual activity,[37],100%
same,residual activity,[38],49.9%
same,residual activity,[39],100%
same,residual activity,[40],100%
same,residual activity,[41],100%
same,inhibition,[42],-3.57%
same,residual activity,[43],100%
same,residual activity,[44],100%
same,residual activity,[45],57.5%
